The NIST ThermoML archive (doi:10.1016/j.jct.2016.04.020)
Numbers after ± are expanded uncertainties.

Test: mn = molality of the nth substance listed, in mol/kg
Conditions: 101.3 kPa, Liquid, Vibrating tube method

O=C([O-])CC(O)(CC(=O)[O-])C(=O)[O-].[Li+].[Li+].[Li+] [trilithium citrate] + O
Conditions	mass density [kg/m3]
278.15 K, m1 = 0.0128	1002 ± 0.25
278.15 K, m1 = 0.0256	1003.88 ± 0.25
278.15 K, m1 = 0.06	1008.52 ± 0.24
278.15 K, m1 = 0.1021	1013.86 ± 0.24
278.15 K, m1 = 0.1956	1026.51 ± 0.24
278.15 K, m1 = 0.293	1038.92 ± 0.24
278.15 K, m1 = 0.3876	1050.53 ± 0.24
278.15 K, m1 = 0.4799	1061.45 ± 0.24
278.15 K, m1 = 0.6695	1083.25 ± 0.24
278.15 K, m1 = 0.7552	1092.43 ± 0.24
278.15 K, m1 = 0.8394	1101.64 ± 0.24
278.15 K, m1 = 0.9407	1112.23 ± 0.24
278.15 K, m1 = 1.33	1149.11 ± 0.24
278.15 K, m1 = 1.74	1185.46 ± 0.25
283.15 K, m1 = 0.0128	1001.66 ± 0.25
283.15 K, m1 = 0.0256	1003.48 ± 0.24
283.15 K, m1 = 0.06	1008.09 ± 0.24
283.15 K, m1 = 0.1021	1013.43 ± 0.24
283.15 K, m1 = 0.1956	1025.89 ± 0.24
283.15 K, m1 = 0.293	1038.19 ± 0.24
283.15 K, m1 = 0.3876	1049.67 ± 0.24
283.15 K, m1 = 0.4799	1060.48 ± 0.24
283.15 K, m1 = 0.6695	1082.11 ± 0.24
283.15 K, m1 = 0.7552	1091.22 ± 0.24
283.15 K, m1 = 0.8394	1100.37 ± 0.24
283.15 K, m1 = 0.9407	1110.89 ± 0.24
283.15 K, m1 = 1.33	1147.56 ± 0.24
283.15 K, m1 = 1.74	1183.73 ± 0.25
288.15 K, m1 = 0.0128	1001.03 ± 0.25
288.15 K, m1 = 0.0256	1002.83 ± 0.24
288.15 K, m1 = 0.06	1007.41 ± 0.24
288.15 K, m1 = 0.1021	1012.68 ± 0.24
288.15 K, m1 = 0.1956	1025.03 ± 0.24
288.15 K, m1 = 0.293	1037.23 ± 0.24
288.15 K, m1 = 0.3876	1048.63 ± 0.24
288.15 K, m1 = 0.4799	1059.37 ± 0.24
288.15 K, m1 = 0.6695	1080.85 ± 0.24
288.15 K, m1 = 0.7552	1089.92 ± 0.24
288.15 K, m1 = 0.8394	1099.01 ± 0.24
288.15 K, m1 = 0.9407	1109.48 ± 0.24
288.15 K, m1 = 1.33	1145.98 ± 0.24
288.15 K, m1 = 1.74	1182.04 ± 0.25
293.15 K, m1 = 0.0128	1000.13 ± 0.25
293.15 K, m1 = 0.0256	1001.93 ± 0.24
293.15 K, m1 = 0.06	1006.4 ± 0.24
293.15 K, m1 = 0.1021	1011.71 ± 0.24
293.15 K, m1 = 0.1956	1023.97 ± 0.24
293.15 K, m1 = 0.293	1036.06 ± 0.24
293.15 K, m1 = 0.3876	1047.42 ± 0.24
293.15 K, m1 = 0.4799	1058.1 ± 0.24
293.15 K, m1 = 0.6695	1079.46 ± 0.24
293.15 K, m1 = 0.7552	1088.49 ± 0.24
293.15 K, m1 = 0.8394	1097.55 ± 0.24
293.15 K, m1 = 0.9407	1107.97 ± 0.24
293.15 K, m1 = 1.33	1144.34 ± 0.24
293.15 K, m1 = 1.74	1180.29 ± 0.25
298.15 K, m1 = 0.0128	998.94 ± 0.25
298.15 K, m1 = 0.0256	1000.72 ± 0.24
298.15 K, m1 = 0.06	1005.21 ± 0.24
298.15 K, m1 = 0.1021	1010.53 ± 0.24
298.15 K, m1 = 0.1956	1022.63 ± 0.24
298.15 K, m1 = 0.293	1034.68 ± 0.24
298.15 K, m1 = 0.3876	1045.95 ± 0.24
298.15 K, m1 = 0.4799	1056.57 ± 0.24
298.15 K, m1 = 0.6695	1077.86 ± 0.24
298.15 K, m1 = 0.7552	1086.85 ± 0.24
298.15 K, m1 = 0.8394	1095.87 ± 0.24
298.15 K, m1 = 0.9407	1106.24 ± 0.24
298.15 K, m1 = 1.33	1142.51 ± 0.24
298.15 K, m1 = 1.74	1178.37 ± 0.25
303.15 K, m1 = 0.0128	997.54 ± 0.25
303.15 K, m1 = 0.0256	999.32 ± 0.24
303.15 K, m1 = 0.06	1003.8 ± 0.24
303.15 K, m1 = 0.1021	1008.95 ± 0.24
303.15 K, m1 = 0.1956	1021.12 ± 0.24
303.15 K, m1 = 0.293	1033.1 ± 0.24
303.15 K, m1 = 0.3876	1044.36 ± 0.24
303.15 K, m1 = 0.4799	1054.93 ± 0.24
303.15 K, m1 = 0.6695	1076.13 ± 0.24
303.15 K, m1 = 0.7552	1085.11 ± 0.24
303.15 K, m1 = 0.8394	1094.1 ± 0.24
303.15 K, m1 = 0.9407	1104.46 ± 0.23
303.15 K, m1 = 1.33	1140.64 ± 0.24
303.15 K, m1 = 1.74	1176.43 ± 0.24
308.15 K, m1 = 0.0128	995.93 ± 0.25
308.15 K, m1 = 0.0256	997.69 ± 0.24
308.15 K, m1 = 0.06	1002.15 ± 0.24
308.15 K, m1 = 0.1021	1007.28 ± 0.24
308.15 K, m1 = 0.1956	1019.42 ± 0.24
308.15 K, m1 = 0.293	1031.35 ± 0.24
308.15 K, m1 = 0.3876	1042.52 ± 0.24
308.15 K, m1 = 0.4799	1053.1 ± 0.24
308.15 K, m1 = 0.6695	1074.26 ± 0.24
308.15 K, m1 = 0.7552	1083.2 ± 0.24
308.15 K, m1 = 0.8394	1092.17 ± 0.24
308.15 K, m1 = 0.9407	1102.51 ± 0.23
308.15 K, m1 = 1.33	1138.61 ± 0.24
308.15 K, m1 = 1.74	1174.35 ± 0.24
313.15 K, m1 = 0.0128	994.08 ± 0.25
313.15 K, m1 = 0.0256	995.83 ± 0.24
313.15 K, m1 = 0.06	1000.28 ± 0.24
313.15 K, m1 = 0.1021	1005.41 ± 0.24
313.15 K, m1 = 0.1956	1017.49 ± 0.24
313.15 K, m1 = 0.293	1029.43 ± 0.24
313.15 K, m1 = 0.3876	1040.59 ± 0.24
313.15 K, m1 = 0.4799	1051.12 ± 0.24
313.15 K, m1 = 0.6695	1072.2 ± 0.24
313.15 K, m1 = 0.7552	1081.14 ± 0.24
313.15 K, m1 = 0.8394	1090.09 ± 0.24
313.15 K, m1 = 0.9407	1100.41 ± 0.23
313.15 K, m1 = 1.33	1136.47 ± 0.24
313.15 K, m1 = 1.74	1172.18 ± 0.24
318.15 K, m1 = 0.0128	992.05 ± 0.25
318.15 K, m1 = 0.0256	993.81 ± 0.24
318.15 K, m1 = 0.06	998.26 ± 0.24
318.15 K, m1 = 0.1021	1003.38 ± 0.24
318.15 K, m1 = 0.1956	1015.42 ± 0.24
318.15 K, m1 = 0.293	1027.35 ± 0.24
318.15 K, m1 = 0.3876	1038.47 ± 0.24
318.15 K, m1 = 0.4799	1048.98 ± 0.24
318.15 K, m1 = 0.6695	1070.04 ± 0.24
318.15 K, m1 = 0.7552	1078.96 ± 0.24
318.15 K, m1 = 0.8394	1087.9 ± 0.24
318.15 K, m1 = 0.9407	1098.21 ± 0.23
318.15 K, m1 = 1.33	1134.23 ± 0.24
318.15 K, m1 = 1.74	1169.9 ± 0.24
323.15 K, m1 = 0.0128	989.86 ± 0.25
323.15 K, m1 = 0.0256	991.58 ± 0.24
323.15 K, m1 = 0.06	996.08 ± 0.24
323.15 K, m1 = 0.1021	1001.19 ± 0.24
323.15 K, m1 = 0.1956	1013.22 ± 0.24
323.15 K, m1 = 0.293	1025.12 ± 0.24
323.15 K, m1 = 0.3876	1036.24 ± 0.24
323.15 K, m1 = 0.4799	1046.74 ± 0.24
323.15 K, m1 = 0.6695	1067.78 ± 0.24
323.15 K, m1 = 0.7552	1076.68 ± 0.24
323.15 K, m1 = 0.8394	1085.62 ± 0.24
323.15 K, m1 = 0.9407	1095.92 ± 0.23
323.15 K, m1 = 1.33	1131.93 ± 0.24
323.15 K, m1 = 1.74	1167.57 ± 0.24
328.15 K, m1 = 0.0128	987.52 ± 0.25
328.15 K, m1 = 0.0256	989.24 ± 0.24
328.15 K, m1 = 0.06	993.72 ± 0.24
328.15 K, m1 = 0.1021	998.82 ± 0.24
328.15 K, m1 = 0.1956	1010.84 ± 0.24
328.15 K, m1 = 0.293	1022.76 ± 0.24
328.15 K, m1 = 0.3876	1033.86 ± 0.24
328.15 K, m1 = 0.4799	1044.36 ± 0.24
328.15 K, m1 = 0.6695	1065.38 ± 0.24
328.15 K, m1 = 0.7552	1074.27 ± 0.24
328.15 K, m1 = 0.8394	1083.21 ± 0.24
328.15 K, m1 = 0.9407	1093.5 ± 0.23
328.15 K, m1 = 1.33	1129.51 ± 0.24
328.15 K, m1 = 1.74	1165.14 ± 0.24
333.15 K, m1 = 0.0128	985.04 ± 0.24
333.15 K, m1 = 0.0256	986.7 ± 0.24
333.15 K, m1 = 0.06	991.24 ± 0.24
333.15 K, m1 = 0.1021	996.31 ± 0.24
333.15 K, m1 = 0.1956	1008.42 ± 0.24
333.15 K, m1 = 0.293	1020.27 ± 0.24
333.15 K, m1 = 0.3876	1031.35 ± 0.24
333.15 K, m1 = 0.4799	1041.87 ± 0.24
333.15 K, m1 = 0.6695	1062.87 ± 0.24
333.15 K, m1 = 0.7552	1071.77 ± 0.24
333.15 K, m1 = 0.8394	1080.69 ± 0.24
333.15 K, m1 = 0.9407	1090.99 ± 0.23
333.15 K, m1 = 1.33	1127.01 ± 0.24
333.15 K, m1 = 1.74	1162.66 ± 0.24
338.15 K, m1 = 0.0128	982.43 ± 0.24
338.15 K, m1 = 0.0256	984.02 ± 0.24
338.15 K, m1 = 0.06	988.59 ± 0.24
338.15 K, m1 = 0.1021	993.66 ± 0.24
338.15 K, m1 = 0.1956	1005.8 ± 0.24
338.15 K, m1 = 0.293	1017.67 ± 0.24
338.15 K, m1 = 0.3876	1028.73 ± 0.24
338.15 K, m1 = 0.4799	1039.22 ± 0.24
338.15 K, m1 = 0.6695	1060.25 ± 0.24
338.15 K, m1 = 0.7552	1069.15 ± 0.24
338.15 K, m1 = 0.8394	1078.19 ± 0.24
338.15 K, m1 = 0.9407	1088.43 ± 0.23
338.15 K, m1 = 1.33	1124.43 ± 0.24
338.15 K, m1 = 1.74	1160.09 ± 0.24
343.15 K, m1 = 0.0128	979.51 ± 0.24
343.15 K, m1 = 0.0256	981.2 ± 0.24
343.15 K, m1 = 0.06	985.85 ± 0.24
343.15 K, m1 = 0.1021	990.99 ± 0.24
343.15 K, m1 = 0.1956	1002.94 ± 0.24
343.15 K, m1 = 0.293	1014.95 ± 0.24
343.15 K, m1 = 0.3876	1026.06 ± 0.24
343.15 K, m1 = 0.4799	1036.55 ± 0.24
343.15 K, m1 = 0.6695	1057.62 ± 0.24
343.15 K, m1 = 0.7552	1066.41 ± 0.24
343.15 K, m1 = 0.8394	1075.46 ± 0.24
343.15 K, m1 = 0.9407	1085.78 ± 0.23
343.15 K, m1 = 1.33	1121.83 ± 0.24
343.15 K, m1 = 1.74	1157.54 ± 0.24
